# In US7723326B2, “Heterocyclic amide derivatives as RXR agonists for the treatment of dyslipidemia, hypercholesterolemia and diabetes” (Janssen Pharmaceutica N.V., priority 2005, dated 2010):
# Key:
# [1] = test system: ABCA1 mRNA in THP-1 cells; assay: ABCA1 bDNA assay (ABCA1 mRNA induction); type: cell-based; conditions: Homo sapiens; for Emax at 3 µM: relative to MX-6054, read-out: ABCA1 % max MX-6054; for EC50: ABCA1 mRNA induction, usually 18-24 hrs
# Protocol: THP-1 cells, a human monocytic cell line, were obtained from ATCC and maintained in RPMI (Gibco) supplemented with 10% fetal bovine serum (Gibco), 2mM L-glutamine and 1% antibiotic-antimycotic in 5% CO2 at 37° C. For ABCA1 mRNA induction assays, the cells were pelleted and resuspended in RPMI supplemented with 0.5% charcoal treated serum (Hyclone), 2 mM glutamine and 1% antibiotic-antimycotic. The cells were plated at a density of 40,000 cells/90 μl and incubated as above for at least 4 hours before the initiation of treatments. Compounds were prepared as 10 mM stocks in DMSO. For treatments, the compounds were diluted in medium and 10 μl of 10× stocks were added to the cells at a final concentration 0.1% DMSO. The cells were incubated for the desired amount of time (usually 18-24 hrs) and then lyzed with 50 μl of Quantigene HV bDNA lysis buffer which also contained the ABCA1 bDNA probes (probe sequences shown below): […]
# [2] = biological target: T1, RXR ligand binding domain (accession number X52773) fused with the DNA binding domain of yeast GAL4 (Homo sapiens, UniProt P19793); assay: RXR co-transfection assay (GAL4-LBD luciferase reporter in HEK293 cells); type: cell-based; conditions: 16-18 hours
# T1 construct: expressed in transfected cells; host or cells: HEK293
# T1 sequence (P19793 227-458 limits assumed): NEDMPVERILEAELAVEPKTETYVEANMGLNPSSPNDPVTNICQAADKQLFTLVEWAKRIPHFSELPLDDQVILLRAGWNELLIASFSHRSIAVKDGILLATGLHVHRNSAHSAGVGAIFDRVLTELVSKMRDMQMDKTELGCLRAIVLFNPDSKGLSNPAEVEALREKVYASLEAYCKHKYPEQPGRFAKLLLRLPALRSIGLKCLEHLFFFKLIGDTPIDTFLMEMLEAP
# Protocol: The nucleic acid sequence from 676-1464bp (accession number X52773) encoding the ligand binding domains was subcloned into the pM vector (BD Biosciences Clontech, Palo Alto, Calif.) and were fused with the DNA binding domain of yeast GAL4. HEK293 cells were cultured in DMEM/F12 medium supplemented with 10% FBS and 1% 1-glutamine (growth medium). Cells were seeded at a density of 5-10×10^6 cells in 50 ml of growth medium and left overnight, The medium was removed and the cells were washed with 15 ml of OptiMEM serum free medium (Invitrogen Corp). The cells were transfected using OptiMEM serum free medium and DMRIE transfection reagent (Invitrogen Corp). Approximately 10-30 ng of DNA for the different receptors and 5-10 ng of the luciferase reporter (1:1 ratio for RAR and 4:1 ratio for RXR of receptor DNA:reporter DNA) were gently mixed with 51 μl of DMRIE reagent in a total volume of 17 ml of OptiMEM medium. Eighteen hours after transfection, the cells were washed once with growth medium and then incubated for 6 hrs in 30 ml of growth medium. The cells were then trypsinized, and reseeded at a density of 50,000 per well in 96 well plates and left overnight. The medium was replaced with 90 μl of medium containing DMEM/F12 supplemented with 0.5% charcoal-treated FBS (HyClone; Logan, Utah) and 1% glutamine. Compounds or vehicle were added in 10 μl of 10× concentration of compound or vehicle (0.1% dimethyl sulfoxide). The cells were treated for 16-18 hours, lysed and assayed for luciferase activity using the Steady Gio luciferase assay kit (Promega, Madison, Wis.).
EC50 [1],EC50 [2],SMILES,Emax at 3 µM [1]
> 2000 nM,61.2 nM,"CCN1C(=O)C(C)(C)Oc2cc(C)c(-c3cc(/C(C)=C/C(=O)O)ccc3OC(F)(F)F)cc21 [Compound 11, 3-[3-(4-Ethyl-2,2,7-trimethyl-3-oxo-3,4-dihydro-2H-benzo[1,4]oxazin-6-yl)-4-trifluoromethoxy-phenyl]-but-2-enoic acid]",75.5%
> 2000 nM,709 nM,"CCN1C(=O)C(C)(C)Oc2cc(C)c(-c3cc(CCC(=O)O)ccc3OC(F)(F)F)cc21 [Compound 12, 3-[3-(4-Ethyl-2,2,7-trimethyl-3-oxo-3,4-dihydro-2H-benzo[1,4]oxazin-6-yl)-4-trifluoromethoxy-phenyl]-propionic acid]",
> 2000 nM,347 nM,"Cc1cc2c(cc1-c1cc(CCC(=O)O)ccc1OC(F)(F)F)N(C(C)C)C(=O)C(C)(C)O2 [Compound 13, 3-[3-(4-Isopropyl-2,2,7-trimethyl-3-oxo-3,4-dihydro-2H-benzo[1,4]oxazin-6-yl)-4-trifluoromethoxy-phenyl]-propionic acid]",
> 2000 nM,> 2000 nM,"CCN1C(=O)OC(C(C)C)c2cc(C)c(-c3cc(CCC(=O)O)ccc3OC(F)(F)F)cc21 (stereo not shown) [Compound 18, 3-[3-(1-Ethyl-4-isopropyl-6-methyl-2-oxo-1,4-dihydro-2H-benzo[d][1,3]oxazin-7-yl)-4-trifluoromethoxy-phenyl]-propionic acid]",4.5%
